Non-standard residues stand in square brackets, D forms with d. Residues, ends and D or L forms follow the SMILES beside them. hArg = N=C(N)NCCCC[C@H](N)C(=O)O; Cit = NC(=O)NCCC[C@H](N)C(=O)O; Orn = NCCC[C@H](N)C(=O)O; Dab = NCC[C@H](N)C(=O)O; Nva = CCC[C@H](N)C(=O)O; Dap = NC[C@H](N)C(=O)O
Columns and labels:
[1] = biological target: T1, Neuropeptide S receptor (Mus musculus, UniProt Q8BZP8); experiment: Agonist activity at mouse NPSR expressed in HEK293 cells assessed as increase in intracellular calcium mobilization by FLIPR; format: functional, cell-based
T1 sequence (Q8BZP8 whole entry): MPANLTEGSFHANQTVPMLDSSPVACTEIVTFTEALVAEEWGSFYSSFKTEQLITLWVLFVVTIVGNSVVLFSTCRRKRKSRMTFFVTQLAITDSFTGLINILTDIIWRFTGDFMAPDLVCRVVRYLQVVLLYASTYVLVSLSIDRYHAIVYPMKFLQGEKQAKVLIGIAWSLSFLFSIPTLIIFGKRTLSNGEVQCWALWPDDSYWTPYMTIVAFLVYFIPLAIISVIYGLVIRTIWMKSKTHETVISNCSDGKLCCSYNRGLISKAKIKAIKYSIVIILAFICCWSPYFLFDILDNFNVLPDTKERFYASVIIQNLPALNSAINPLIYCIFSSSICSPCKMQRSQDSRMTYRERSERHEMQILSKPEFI

[2] = biological target: T2, Neuropeptide S receptor (Mus musculus) (UniProt Q8BZP8); experiment: Agonist activity at mouse NPSR expressed in HEK293 cells assessed as increase in intracellular calcium mobilization by FLIPR relative to baseline; format: functional, cell-based
T2 sequence (whole entry): T1 sequence (Q8BZP8 whole entry)

Row | EC50 [1] [nM] | Emax [2] [%] | Molecule
1 | 166 | 285 | CSCC[C@H](NC(=O)CNC(=O)[C@@H](NC(=O)CNC(=O)[C@@H](NC(=O)CNC(=O)[C@H](CC(N)=O)NC(=O)[C@H](CCCNC(N)=O)NC(=O)[C@H](Cc1ccccc1)NC(=O)[C@@H](N)CO)C(C)C)[C@@H](C)O)C(=O)N[C@@H](CCCCN)C(=O)N[C@@H](CCCCN)C(=O)N[C@H](C(=O)N[C@@H](CO)C(=O)N[C@@H](Cc1ccccc1)C(=O)N[C@@H](CCC(N)=O)C(=O)N[C@@H](CCCNC(=N)N)C(=O)N[C@@H](C)C(=O)N[C@@H](CCCCN)C(=O)N[C@@H](CO)C(=O)O)[C@@H](C)O (H-SF[Cit]NGVGTGMKKTSFQRAKS-OH)
2 | 135 | 207 | CCC[C@H](NC(=O)[C@H](Cc1ccccc1)NC(=O)[C@@H](N)CO)C(=O)N[C@@H](CC(N)=O)C(=O)NCC(=O)N[C@H](C(=O)NCC(=O)N[C@H](C(=O)NCC(=O)N[C@@H](CCSC)C(=O)N[C@@H](CCCCN)C(=O)N[C@@H](CCCCN)C(=O)N[C@H](C(=O)N[C@@H](CO)C(=O)N[C@@H](Cc1ccccc1)C(=O)N[C@@H](CCC(N)=O)C(=O)N[C@@H](CCCNC(=N)N)C(=O)N[C@@H](C)C(=O)N[C@@H](CCCCN)C(=O)N[C@@H](CO)C(=O)O)[C@@H](C)O)[C@@H](C)O)C(C)C (H-SF[Nva]NGVGTGMKKTSFQRAKS-OH)
3 | 372 | 256 | H-SFCNGVGTGMKKTSFQRAKS-OH
4 | 129 | 295 | H-SFQNGVGTGMKKTSFQRAKS-OH
5 | 12 | 234 | H-SFRNGVGTGMKKTSFQRAKS-OH [NEUROPEPTIDE S]
6 | 102 | 253 | H-SFRTGVGTGMKKTSFQRAKS-OH

Further lines, the molecule ahead of its results:

Row | Molecule | EC50 [1] [nM] | Emax [2] [%]
7 | CSCC[C@H](NC(=O)CNC(=O)[C@@H](NC(=O)CNC(=O)[C@@H](NC(=O)CNC(=O)[C@H](CC(N)=O)NC(=O)[C@H](CCN)NC(=O)[C@H](Cc1ccccc1)NC(=O)[C@@H](N)CO)C(C)C)[C@@H](C)O)C(=O)N[C@@H](CCCCN)C(=O)N[C@@H](CCCCN)C(=O)N[C@H](C(=O)N[C@@H](CO)C(=O)N[C@@H](Cc1ccccc1)C(=O)N[C@@H](CCC(N)=O)C(=O)N[C@@H](CCCNC(=N)N)C(=O)N[C@@H](C)C(=O)N[C@@H](CCCCN)C(=O)N[C@@H](CO)C(=O)O)[C@@H](C)O (H-SF[Dab]NGVGTGMKKTSFQRAKS-OH) | 204 | 207
8 | CSCC[C@H](NC(=O)CNC(=O)[C@@H](NC(=O)CNC(=O)[C@@H](NC(=O)CNC(=O)[C@H](CC(N)=O)NC(=O)[C@H](CN)NC(=O)[C@H](Cc1ccccc1)NC(=O)[C@@H](N)CO)C(C)C)[C@@H](C)O)C(=O)N[C@@H](CCCCN)C(=O)N[C@@H](CCCCN)C(=O)N[C@H](C(=O)N[C@@H](CO)C(=O)N[C@@H](Cc1ccccc1)C(=O)N[C@@H](CCC(N)=O)C(=O)N[C@@H](CCCNC(=N)N)C(=O)N[C@@H](C)C(=O)N[C@@H](CCCCN)C(=O)N[C@@H](CO)C(=O)O)[C@@H](C)O (H-SF[Dap]NGVGTGMKKTSFQRAKS-OH) | 240 | 196
9 | CSCC[C@H](NC(=O)CNC(=O)[C@@H](NC(=O)CNC(=O)[C@@H](NC(=O)CNC(=O)[C@H](CC(N)=O)NC(=O)[C@H](CCCN)NC(=O)[C@H](Cc1ccccc1)NC(=O)[C@@H](N)CO)C(C)C)[C@@H](C)O)C(=O)N[C@@H](CCCCN)C(=O)N[C@@H](CCCCN)C(=O)N[C@H](C(=O)N[C@@H](CO)C(=O)N[C@@H](Cc1ccccc1)C(=O)N[C@@H](CCC(N)=O)C(=O)N[C@@H](CCCNC(=N)N)C(=O)N[C@@H](C)C(=O)N[C@@H](CCCCN)C(=O)N[C@@H](CO)C(=O)O)[C@@H](C)O (H-SF[Orn]NGVGTGMKKTSFQRAKS-OH) | 31.6 | 318
10 | CSCC[C@H](NC(=O)CNC(=O)[C@@H](NC(=O)CNC(=O)[C@@H](NC(=O)CNC(=O)[C@H](CC(N)=O)NC(=O)[C@H](CCCCNC(=N)N)NC(=O)[C@H](Cc1ccccc1)NC(=O)[C@@H](N)CO)C(C)C)[C@@H](C)O)C(=O)N[C@@H](CCCCN)C(=O)N[C@@H](CCCCN)C(=O)N[C@H](C(=O)N[C@@H](CO)C(=O)N[C@@H](Cc1ccccc1)C(=O)N[C@@H](CCC(N)=O)C(=O)N[C@@H](CCCNC(=N)N)C(=O)N[C@@H](C)C(=O)N[C@@H](CCCCN)C(=O)N[C@@H](CO)C(=O)O)[C@@H](C)O (H-SF[hArg]NGVGTGMKKTSFQRAKS-OH) | 10.7 | 288
11 | H-SFGNGVGTGMKKTSFQRAKS-OH | 1260 | 264
12 | H-SFHNGVGTGMKKTSFQRAKS-OH | 1550 | 273
13 | H-SFKNGVGTGMKKTSFQRAKS-OH | 18.2 | 290
14 | H-SFRQGVGTGMKKTSFQRAKS-OH | 562 | 210
15 | H-SFTNGVGTGMKKTSFQRAKS-OH | 871 | 272

Reference: ChEMBL document CHEMBL1152211, “Structure-activity study at positions 3 and 4 of human neuropeptide S” (Bioorg Med Chem, 2008)
